Experimental data published in the NIST ThermoML archive (doi:10.1016/j.jct.2015.10.026).

Key:
[1] = 101.33 kPa, Liquid; for electrical conductivity: Direct current cell with electrodes; for mass density: Vibrating tube method
[2] = mn = molality of the nth substance listed, in mol/kg; settings: 100 kPa, Liquid, Capillary tube (Ostwald / Ubbelohde) method, m2 = 0

CCCCn1cc[n+](C)c1.NCCS(=O)(=O)[O-] [1-butyl-3-methylimidazolium taurate]
[1], Cone and plate viscometry
Settings	viscosity [mPa·s]
293.15 K	1761.4
298.15 K	1169.2
303.15 K	799.87
308.15 K	561.88
313.15 K	405.34
318.15 K	298.26
323.15 K	224.97

[1]
Settings	electrical conductivity [S/m]	mass density [kg/m3]
293.15 K	0.0098	1195.4
298.15 K	0.0161	1192.1
303.15 K	0.0257	1188.77
308.15 K	0.0356	1185.4
313.15 K	0.0518	1182.02
318.15 K	0.0697	1178.53
323.15 K	0.0922	1175.06

O [water] + CCCCn1cc[n+](C)c1.NCCS(=O)(=O)[O-]
[2]
Settings	viscosity [mPa·s]
293.15 K	1.003
298.15 K	0.89
303.15 K	0.797
308.15 K	0.719
313.15 K	0.653

O [water]
[1], Capillary tube (Ostwald / Ubbelohde) method
Settings	viscosity [mPa·s]
293.15 K	1.003
298.15 K	0.89
303.15 K	0.797
308.15 K	0.719
313.15 K	0.653
